Measurements reported in ChEMBL document CHEMBL3259734, “Cepharanthine inhibited HIV-1 cell-cell transmission and cell-free infection via modification of cell membrane fluidity” (Bioorg Med Chem Lett, 2014).
Values after ≈ are worked out from the molar mass of the structure shown. Active and inactive are the calls of the source. The calls are words filed in the database; no cut-off is given here.

Legend:
[1] = test system: Human immunodeficiency virus 1; assay: Antiviral activity against HIV1 NL4.3 infected in human PHA-blast cells from PBMC assessed as reduction in viral production measured as p24 protein expression cells pretreated for 1 hr with compound at 1 to 5 ug/ml and washed 1 hr after infection measured at day 4 post infection by ELISA; format: functional, organism-based
MOLT-4 [2] = assay: Inhibition of HIV1 envelope Env-dependent cell fusion in JurkatHXBc2 cells expressing Env co-cultured with 1 hr at compound treated PKH67-labelled human MOLT4 cells at 1:1 ratio for 24 hrs by flow cytometry; format: cell-based; details: Human immunodeficiency virus 1
[3] = test system: Human immunodeficiency virus 1; assay: Antiviral activity against HIV1 NL4.3 infected in human PHA-blast cells from PBMC assessed as reduction in viral production measured as p24 protein expression cells pretreated for 1 hr with compound at 1 to 5 ug/ml and washed 1 hr after infection measured at day 4 post infection by flow cytometry; format: functional, organism-based
[4] = Cytotoxicity against human TZM-bl cells assessed as cell growth inhibition at 1 to 10 ug/ml washout after 1 hr measured at 24 hrs by MTT assay; format: cell-based
HEK-293T = assay: Suppression of syncytial formation in HIV1 envelope Env-GFP expressing HEK293T cells co-cultured with 1 hr at up to 5 ug/ml compound treated human TZM-bl cells by fluorescent microscopy; format: cell-based; details: Human immunodeficiency virus 1
MOLT-4 [5] = assay: Reduction in membrane fluidity in human MOLT4 cells assessed as fluorescence polarization of DPH by spectrophotofluorometry; format: functional, cell-based
MOLT-4 [6] = assay: Inhibition of HIV1 envelope Env-dependent cell fusion in JurkatHXBc2 cells expressing Env co-cultured with 1 hr at compound treated PKH67-labelled human MOLT4 cells at 1:1 ratio for 24 hrs by fluorescent microscopy; format: cell-based; details: Human immunodeficiency virus 1
[7] = Cytotoxicity against human MOLT4 cells assessed as cell growth inhibition after 24 hrs by MTT assay; format: cell-based; details: MOLT-4 cells
[8] = Cytotoxicity against human PHA-blast cells from CBMC assessed as cell growth inhibition at 1 to 10 ug/ml washout after 1 hr measured at 24 hrs by MTT assay; format: cell-based
PBMC = assay: Cytotoxicity against human PHA-blast cells from PBMC assessed as cell growth inhibition at 1 to 10 ug/ml washout after 1 hr measured at 24 hrs by MTT assay; format: cell-based
MOLT-4 [9] = assay: Cytotoxicity against human MOLT4 cells assessed as cell growth inhibition at 1 to 10 ug/ml washout after 1 hr measured at 24 hrs by MTT assay; format: cell-based
MOLT-4 [10] = assay: Cytotoxicity against human MOLT4 cells assessed as cell growth inhibition up to 20 ug/ml washout after 1 hr measured at 24 hrs by MTT assay; format: cell-based; details: molt-4, 1 h

COc1ccc2cc1Oc1ccc(cc1)C[C@H]1c3c(cc4c(c3Oc3cc5c(cc3OC)CCN(C)[C@@H]5C2)OCO4)CCN1C [CEPHARANTHINE]
inhibition [1]: Active | inhibition (MOLT-4 [2]): Dose-dependent effect | inhibition [3]: Active | Activity [4]: Non-toxic | Activity (HEK-293T): Active | Activity (MOLT-4 [5]): Dose-dependent effect | inhibition (MOLT-4 [6]): Dose-dependent effect | CC50 at 24 h [7]: 10 µg/mL (≈ 16.5 µM) | Activity [8]: Non-toxic | Activity (PBMC): Non-toxic | Activity (MOLT-4 [9]): Non-toxic | Activity (MOLT-4 [10]): Non-toxic
